Patent US20230278972A1, “SUBSTITUTED HALOALKYL SULFONANILIDE HERBICIDES” (FMC Corporation, priority 2020, published 2023)

Tests used:
Format in all cases: in vivo
[1] = test system: barnyardgrass (Echinochloa crus-galli); assay: Test A postemergence, barnyardgrass; settings: Postemergence, 0 to 100 scale (0 no effect, 100 complete control); for Barnyardgrass plant response rating: 500 g ai/ha, visual injury vs untreated controls after approx. 10 days
Outline: (§1)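 Compounds in non-phytotoxic solvent with surfactant. Soil: loam/sand. Preemergence via directed soil spray after seeding; postemergence on seedlings 2–10 cm, one- to two-leaf.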

[2] = test system: galium (catchweed bedstraw, Galium aparine); assay: Test A postemergence, galium; settings: Postemergence; for Galium plant response rating: 500 g ai/ha, visual injury vs untreated controls after approx. 10 days
Outline: as §1

[3] = test system: blackgrass (Alopecurus myosuroides); assay: Test A postemergence, blackgrass; settings: Postemergence, 0 to 100 scale (0 no effect, 100 complete control); for Blackgrass plant response rating: 500 g ai/ha, visual injury vs untreated controls after approx. 10 days
Outline: (§2)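 Postemergence ratings come from foliar sprays onto one- to two-leaf plants of 2 to 10 cm grown in loam/sand; preemergence ratings come from a directed spray onto the soil of newly seeded pots. Formulation was a surfactant-containing non-phytotoxic solvent blend.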

[4] = test system: Ryegrass, Italian (Italian ryegrass, Lolium multiflorum); assay: Test A postemergence, Ryegrass, Italian; settings: Postemergence; for Ryegrass, Italian plant response rating: 500 g ai/ha, visual injury vs untreated controls after approx. 10 days
Outline: as §2

[5] = test system: barnyardgrass (Echinochloa crus-galli); assay: Test A preemergence, barnyardgrass; settings: Preemergence; for Barnyardgrass plant response rating: 125 g ai/ha, visual injury on 0 to 100 scale (0 no effect, 100 complete control), approximately 10 days; for Plant response rating, Barnyardgrass: 0 to 100 scale (0 no effect, 100 complete control)
Outline: as §2

[6] = test system: ragweed (common ragweed, Ambrosia artemisiifolia); assay: Test A postemergence, ragweed; settings: Postemergence; for Ragweed plant response rating: 500 g ai/ha, visual injury vs untreated controls after approx. 10 days
Outline: as §2

[7] = test system: kochia (Bassia scoparia); assay: Test A preemergence, kochia; settings: Preemergence; for Kochia plant response rating: 125 g ai/ha, visual injury on 0 to 100 scale (0 no effect, 100 complete control), approximately 10 days; for Plant response rating, Kochia: 0 to 100 scale (0 no effect, 100 complete control)
Outline: as §2

[8] = test system: pigweed (Amaranthus retroflexus); assay: Test A preemergence, pigweed; settings: for Pigweed plant response rating: 125 g ai/ha, visual injury on 0 to 100 scale (0 no effect, 100 complete control), approximately 10 days; for Plant response rating, Pigweed: 0 to 100 scale (0 no effect, 100 complete control)
Outline: as §1

[9] = test system: Foxtail, Giant (giant foxtail, Setaria faberi); assay: Test A postemergence, Foxtail, Giant; settings: Postemergence; for Foxtail, Giant plant response rating: 500 g ai/ha, visual injury vs untreated controls after approx. 10 days
Outline: as §2

[10] = test system: Ryegrass, Italian (Italian ryegrass, Lolium multiflorum); assay: Test A preemergence, Ryegrass, Italian; settings: Preemergence; for Ryegrass, Italian plant response rating: 125 g ai/ha, visual injury on 0 to 100 scale (0 no effect, 100 complete control), approximately 10 days; for Plant response rating, Ryegrass, Italian: 0 to 100 scale (0 no effect, 100 complete control)
Outline: as §2

[11] = test system: wheat (Triticum aestivum); assay: Test A postemergence, wheat; settings: Postemergence; for Wheat plant response rating: 500 g ai/ha, visual injury vs untreated controls after approx. 10 days
Outline: as §1

[12] = test system: pigweed (Amaranthus retroflexus); assay: Test A postemergence, pigweed; settings: Postemergence; for Pigweed plant response rating: 500 g ai/ha, visual injury vs untreated controls after approx. 10 days
Outline: as §2

[13] = test system: kochia (Bassia scoparia); assay: Test A postemergence, kochia; settings: Postemergence; for Kochia plant response rating: 500 g ai/ha, visual injury vs untreated controls after approx. 10 days
Outline: as §2

[14] = test system: Foxtail, Giant (giant foxtail, Setaria faberi); assay: Test A preemergence, Foxtail, Giant; settings: Preemergence; for Foxtail, Giant plant response rating: 125 g ai/ha, visual injury on 0 to 100 scale (0 no effect, 100 complete control), approximately 10 days; for Plant response rating, Foxtail, Giant: 0 to 100 scale (0 no effect, 100 complete control)
Outline: as §2

[15] = test system: ragweed (common ragweed, Ambrosia artemisiifolia); assay: Test A preemergence, ragweed; settings: Preemergence; for Ragweed plant response rating: 125 g ai/ha, visual injury on 0 to 100 scale (0 no effect, 100 complete control), approximately 10 days; for Plant response rating, Ragweed: 0 to 100 scale (0 no effect, 100 complete control)
Outline: as §2

[16] = test system: corn (Zea mays); assay: Test A postemergence, corn; settings: Postemergence; for Corn plant response rating: 500 g ai/ha, visual injury vs untreated controls after approx. 10 days
Outline: as §2

[17] = 125 g ai/ha, visual injury approx. 10 days
[18] = 125 g ai/ha, visual injury approx. 10 days, 0 to 100 scale (0 no effect, 100 complete control)
[19] = 0 to 100 scale (0 no effect, 100 complete control)
[20] = 31 g ai/ha, visual injury on 0 to 100 scale (0 no effect, 100 complete control), approx. 10 days
[21] = 31 g ai/ha, visual injury, approx. 10 days
[22] = 125 g ai/ha, 0 to 100 scale (0 no effect, 100 complete control)

Row | SMILES | Plant response rating, Barnyardgrass [1, 17] | Barnyardgrass plant response rating [1] | Plant response rating, Galium [2, 18] | Galium plant response rating [2, 19] | Plant response rating, Blackgrass [3, 17] | Blackgrass plant response rating [3] | Ryegrass, Italian plant response rating [4, 19] | Barnyardgrass plant response rating [5] | Plant response rating, Barnyardgrass ([5]; 500 g ai/ha) | Ragweed plant response rating [6, 19] | Kochia plant response rating [7] | Plant response rating, Kochia ([7]; 500 g ai/ha) | Pigweed plant response rating [8] | Plant response rating, Pigweed ([8]; 500 g ai/ha) | Plant response rating, Foxtail, Giant [9, 18] | Ryegrass, Italian plant response rating [10] | Plant response rating, Kochia [13, 18] | Foxtail, Giant plant response rating [14] | Ragweed plant response rating [15] | Plant response rating, Corn [16, 18] | also measured
1 | Cc1cc(C#N)c(C(=O)N2CCCCC2)cc1NS(=O)(=O)C(F)(F)F [Compound 126] | 0 | 0 | 80 | 90 | 20 | 30 | 0 | 0 | 40 | 30 | 0 | 30 | 70 | 100 | 0 | 0 | 10 | 20 | 0 | 0 | Plant response rating, Ryegrass, Italian [4, 18]: 0; Plant response rating, Ragweed [6, 18]: 0; Foxtail, Giant plant response rating [9, 19]: 0; Plant response rating, Ryegrass, Italian ([10]; 500 g ai/ha): 40; Plant response rating, Wheat [11, 18]: 0; Wheat plant response rating [11, 19]: 0; Plant response rating, Pigweed [12, 18]: 70; Pigweed plant response rating [12, 19]: 90; Kochia plant response rating [13, 19]: 30; Plant response rating, Foxtail, Giant ([14]; 500 g ai/ha): 90; Plant response rating, Ragweed ([15]; 500 g ai/ha): 30; Corn plant response rating [16, 19]: 20
2 | Cc1cc(C)c(N(S(=O)(=O)C(F)(F)F)S(=O)(=O)C(F)(F)F)cc1C1=NOC(C(C)(C)C)C1 (stereo not shown) [Compound 127] | 0 | 70 | 20 | 90 | 20 | 20 | 50 | 50 | 90 | 50 | 80 | 80 | 20 | 40 | 0 | 60 | 10 | 20 | 0 | 0 | Plant response rating, Ryegrass, Italian [4, 18]: 40; Plant response rating, Ragweed [6, 18]: 20; Foxtail, Giant plant response rating [9, 19]: 0; Plant response rating, Ryegrass, Italian ([10]; 500 g ai/ha): 80; Plant response rating, Wheat [11, 18]: 0; Wheat plant response rating [11, 19]: 0; Plant response rating, Pigweed [12, 18]: 0; Pigweed plant response rating [12, 19]: 40; Kochia plant response rating [13, 19]: 40; Plant response rating, Foxtail, Giant ([14]; 500 g ai/ha): 90; Plant response rating, Ragweed ([15]; 500 g ai/ha): 60; Corn plant response rating [16, 19]: 20
3 | Cc1c(NS(=O)(=O)C(F)(F)F)cc(C(=O)N2CCC3(CC2)OCCCO3)c(C)c1F [Compound 129] | 20 | 80 | 60 | 80 | 20 | 30 | 70 | 100 | 90 | 90 | 80 | 90 | 100 | 100 | 0 | 80 | 30 | 100 | 70 | 10 | Plant response rating, Ryegrass, Italian [4, 18]: 0; Plant response rating, Ragweed [6, 18]: 60; Foxtail, Giant plant response rating [9, 19]: 30; Plant response rating, Ryegrass, Italian ([10]; 500 g ai/ha): 100; Plant response rating, Wheat [11, 18]: 30; Wheat plant response rating [11, 19]: 60; Plant response rating, Pigweed [12, 18]: 30; Pigweed plant response rating [12, 19]: 90; Kochia plant response rating [13, 19]: 50; Plant response rating, Foxtail, Giant ([14]; 500 g ai/ha): 100; Plant response rating, Ragweed ([15]; 500 g ai/ha): 90; Corn plant response rating [16, 19]: 20
4 | Cc1cc(C)c(C2=NOC3CCCCC23)cc1NS(=O)(=O)C(F)(F)F (stereo not shown) [Compound 131] | 80 |  | 90 |  | 0 |  |  | 90 |  |  | 40 |  | 90 |  | 10 | 80 | 60 | 100 | 40 | 20 | Plant response rating, Barnyardgrass ([1]; 31 g ai/ha): 20; Plant response rating, Galium [2, 20]: 60; Plant response rating, Blackgrass ([3]; 31 g ai/ha): 20; Plant response rating, Ryegrass, Italian [4, 20]: 0; Plant response rating, Barnyardgrass [5, 21]: 70; Plant response rating, Ragweed [6, 20]: 30; Plant response rating, Kochia [7, 21]: 30; Plant response rating, Pigweed [8, 21]: 30; Plant response rating, Foxtail, Giant [9, 20]: 0; Plant response rating, Ryegrass, Italian [10, 21]: 30; Plant response rating, Wheat [11, 20]: 0; Plant response rating, Pigweed [12, 20]: 50; Plant response rating, Kochia [13, 20]: 40; Plant response rating, Foxtail, Giant [14, 21]: 90; Plant response rating, Ragweed [15, 21]: 0; Plant response rating, Corn [16, 20]: 0
5 | Cc1cc(C(F)(F)F)c(NS(=O)(=O)C(F)(F)F)cc1C(=O)N(C)C [Compound 132] | 0 | 40 | 70 | 90 | 0 | 0 | 40 | 60 | 100 | 90 | 0 | 70 | 100 | 100 | 20 | 80 | 20 | 30 | 80 | 0 | Plant response rating, Ryegrass, Italian [4, 22]: 0; Plant response rating, Ragweed [6, 22]: 60; Foxtail, Giant plant response rating [9, 19]: 40; Plant response rating, Ryegrass, Italian ([10]; 500 g ai/ha): 100; Plant response rating, Wheat [11, 22]: 40; Wheat plant response rating [11, 19]: 0; Plant response rating, Pigweed [12, 22]: 70; Pigweed plant response rating [12, 19]: 90; Kochia plant response rating [13, 19]: 20; Plant response rating, Foxtail, Giant ([14]; 500 g ai/ha): 90; Plant response rating, Ragweed ([15]; 500 g ai/ha): 90; Corn plant response rating [16, 19]: 20
6 | Cc1cc(C(F)(F)F)c(C(=O)N(C)C)cc1NS(=O)(=O)C(F)(F)F [Compound 133] | 0 | 10 | 80 | 90 | 0 | 0 | 40 | 30 | 90 | 80 | 0 | 0 | 30 | 90 | 0 | 20 | 20 | 10 | 20 | 10 | Plant response rating, Ryegrass, Italian [4, 22]: 30; Plant response rating, Ragweed [6, 22]: 90; Foxtail, Giant plant response rating [9, 19]: 10; Plant response rating, Ryegrass, Italian ([10]; 500 g ai/ha): 90; Plant response rating, Wheat [11, 22]: 0; Wheat plant response rating [11, 19]: 50; Plant response rating, Pigweed [12, 22]: 60; Pigweed plant response rating [12, 19]: 90; Kochia plant response rating [13, 19]: 20; Plant response rating, Foxtail, Giant ([14]; 500 g ai/ha): 90; Plant response rating, Ragweed ([15]; 500 g ai/ha): 90; Corn plant response rating [16, 19]: 10
7 | Cc1cc(C#N)c(C(=O)N(C)C)cc1NS(=O)(=O)C(F)(F)F [Compound 134] | 0 | 10 | 50 | 80 | 0 | 0 | 0 | 0 | 40 | 40 | 0 | 0 | 80 | 90 | 0 | 20 | 40 | 40 | 10 | 0 | Plant response rating, Ryegrass, Italian [4, 22]: 0; Plant response rating, Ragweed [6, 22]: 70; Foxtail, Giant plant response rating [9, 19]: 10; Plant response rating, Ryegrass, Italian ([10]; 500 g ai/ha): 90; Plant response rating, Wheat [11, 22]: 0; Wheat plant response rating [11, 19]: 0; Plant response rating, Pigweed [12, 22]: 50; Pigweed plant response rating [12, 19]: 90; Kochia plant response rating [13, 19]: 70; Plant response rating, Foxtail, Giant ([14]; 500 g ai/ha): 100; Plant response rating, Ragweed ([15]; 500 g ai/ha): 30; Corn plant response rating [16, 19]: 0
